The values below are quoted from earlier work in patent publication US20100081719A1 (priority 2006, published 2010).

The test system of series [1] is subjects suffering from fibromyalgia syndrome. The following applies: cited from earlier work; for Subjects with significant clinical improvement: after one month; for Difference from placebo: at three months.
A further series relates to patients with FMS. The following applies: open-label; 11 completing patients; cited from earlier work.

Consider `CN(C)CCC=C1c2ccccc2CCc2ccccc21` [amitriptyline], for which, in series [1], the “Subjects with significant clinical improvement” value is recorded as 21% and the Difference from placebo result is “no difference”.

Take `CN(C)CCC=C1c2ccccc2C=Cc2ccccc21` [cyclobenzaprine]: in series [1], the “Subjects with significant clinical improvement” value is reported as 12% and the Difference from placebo result was “no difference”.

Turning to `COc1ccc(C(CN(C)C)C2(O)CCCCC2)cc1` (stereo not drawn) [venlafaxine], in the series on patients with FMS, the “Completing patients with a positive response (50% or greater improvement in two different measurements of overall pain)” value is listed as “Six of 11” and the “Completing patients with insomnia requiring adjunctive medical therapy” value is on record as 3 of 11.
